Data reported in patent US20060252830A1, “Method for the treatment of magnesium and potassium deficiencies” (priority 2005, published 2006).

Legend:
[1] = system: patients with atrial fibrillation; conditions: oral; two 6 month studies; cited from earlier work
[2] = system: patients receiving sotalol or dofetilide; assay: Randomized, double-blind, placebo-controlled study: 12-lead ECG intervals in people taking dofetilide or sotalol; format: in vivo, human
Description: (§1) A randomized, double-blind, placebo-controlled study was performed at Hartford Hospital. People taking dofetilide or sotalol therapy for at least 5 half-lives were eligible for inclusion. […] After enrollment, people who discontinued their sotalol or dofetilide or altered their dosage of these drugs were excluded as well. Thirty-four participants were enrolled in the study. Three were subsequently excluded because the antiarrhythmics they were using were discontinued or the dose of the antiarrhythmics changed during the study. Given the known baseline differences in QTc intervals among men and women, each gender was randomized separately using stratified allocation. Patients completing the study (n=30) were well matched for baseline characteristics, which are reflected in Table 1. Intracellular concentrations of essential elements were available for 19 subjects. Overall 63.2% of patients (regardless of experimental group) had baseline intracellular magnesium concentrations below the normal reference range of 33.9-41.9 mEq/IU with an average level of 32.6±2.2 mEq/IU. All of the other baseline intracellular elements evaluated (phosphorus, chloride, calcium, potassium, and sodium) were within the reference range although the phosphorus was at the top of the range (average=16.7±2.8 mEq/IU with reference range of 14.2-17.0 mEq/IU).
Participants received three tablets of magnesium L-lactate (Mag-Tab SR®; Niche Pharmaceuticals; Roanoke, Tex.) or matching placebo twice daily (504 mg of elemental magnesium daily) for 48 hours (i.e. t=0, 12 h, 24 h, 36 h, and 48 h). A 12-lead electrocardiogram (ECG) was recorded at 25 mm/sec at rest prior to initiation of treatment (i.e. baseline) and at 3 and 51 hours after the first dose of magnesium (i.e. t=3 h and t=51 h) for each participant. A single blinded investigator read all ECGs using a precision ruler of 0.5 mm scale (Schlaedler-Quinzel, Inc. Parsippany, N.J.).
QT intervals were measured from the onset of the Q wave (or R/S wave if there was no Q wave) to the end of the T wave where it merges with the isoelectric baseline. The beginning and end of the QRS complex were determined by visual inspection, whereas the end of the T-wave was obtained by extrapolating the descending slope of the T-wave to the isoelectric baseline. When a U wave interrupts the down-sloping of the T-wave, the visible portion of the T wave was extrapolated to the T-P baseline to define the end of the T-wave. The R-R interval was measured from the peak of one R wave to the peak of an adjacent R wave. The QTc interval was corrected for heart rate using Bazett's formula [QTc=QT/(RR)^1/2].
Continuous data was expressed by a mean±SD. A p value less than 0.05 was considered statistically significant. The primary analysis was the intergroup comparisons of the change in QTc interval from baseline at 3 hours and 51 hours using Bazett's formula. Evaluations of the QRS, QT, and RR intervals were compared between groups at each time period as well. Mann-Whitney tests were used for all statistical analyses of continuous ECG data. Intracellular element intragroup comparisons were performed with a paired t-test. Chi^2 or Fischer's Exact tests were used for categorical comparisons. Statistical analysis was performed using SPSS version 5.

[3] = Intracellular elemental concentrations in sublingual buccal smears (EXAtest, energy-dispersive X-ray analysis); format: in vivo, human; conditions: p=0.002; all patients below the normal reference range at baseline reached it
Description: as §1, with “Patients completing the study (n=30) were well matched for baseline characteristics, which are reflected in Table 1. Intracellular concentrations of essential elements were available for 19 subjects. Overall 63.2% of patients (regardless of experimental group) had baseline intracellular magnesium concentrations below the normal reference range of 33.9-41.9 mEq/IU with an average level of 32.6±2.2 mEq/IU.” left out
Participants received three tablets of magnesium L-lactate (Mag-Tab SR®; Niche Pharmaceuticals; Roanoke, Tex.) or matching placebo twice daily (504 mg of elemental magnesium daily) for 48 hours (i.e. t=0, 12 h, 24 h, 36 h, and 48 h). A 12-lead electrocardiogram (ECG) was recorded at 25 mm/sec at rest prior to initiation of treatment (i.e. baseline) and at 3 and 51 hours after the first dose of magnesium (i.e. t=3 h and t=51 h) for each participant. […]

Row | Structure (SMILES) | maintaining sinus rhythm [1] | QT interval reduction ([2]; 3 hours) [ms] | reduction in the QTc interval from baseline ([2]; 3 hours, group receiving diuretics) [ms] | reduction in the QTc interval from baseline ([2]; 3 hours, no diuretic group) [ms] | reduction in the QTc interval from baseline ([2]; 51 hours, group receiving diuretics) [ms] | reduction in the QTc interval from baseline ([2]; 51 hours, no diuretic group) [ms] | change of intracellular magnesium concentrations after magnesium supplementation [3]
1 | [Mg+2].[OH-].[OH-] [magnesium hydroxide] | ineffective | – | – | – | – | – | –
2 | C[C@H](O)C(=O)[O-].C[C@H](O)C(=O)[O-].O.O.[Mg+2] [Magnesium L-lactate, magnesium l-lactate dihydrate] | – | 15 | 51.1 ± 42 | 25.5 ± 27.9 | 24.7 ± 24.3 | 26.2 ± 27.4 | rose significantly
